Experimental data: US4315942A, “Intravenously administrable iron supplement” (New England Medical Center, Inc., priority 1979, dated 1982)

Experiments:
[1] = Hgb and Hct after IV injection of the complex in a dog; assay type: in vivo; conditions: after injection of 12 mg Fe, IV push, about 10 minutes
Description: (§1) A 17 kg dog was premedicated and then anesthesized with IV sodium amytal. Through a femoral vein cutdown, the following studies were drawn before and after the addition of the iron complex solution: Hgb, Hct, serum Fe and TIBC (Total Iron Binding Capacity). In addition, serum Fe and TIBC were drawn after the addition of one half of the solution.
(§2) 40 ml of fresh stock solution (containing 6 mg of iron) were given by IV push through the femoral vein. The dog's ECG was monitored throughout the procedure. In approximately 10 minutes, the second set of studies were drawn and a second 40 ml were pushed. The final set of blood studies were drawn in approximately 10 minutes.

serum transferrin = test: Serum Fe, TIBC and saturation of serum transferrin after IV injection of the complex in a dog (efficacy to increase bioavailable iron); assay type: in vivo; conditions: for serum Fe / TIBC (Total Iron Binding Capacity): IV push; for serum Fe: before injection 235 (dog fed an iron rich diet); for TIBC (Total Iron Binding Capacity): before injection 360
Description: as §1, §2

[2] = oral, relatively large daily doses; cited from earlier work
[3] = after injection of 6 mg Fe, about 10 minutes
[4] = after injection of 12 mg Fe, about 10 minutes after second 40 ml

Row | Compound | Hgb ([1]; before injection 6.7) [g%] | Hct ([1]; before injection 20.5) [%] | saturation of serum transferrin (serum transferrin; addition of 6 mg of iron, IV, serum Fe equal to the TIBC) | serum iron relative to TIBC (serum transferrin; after a further 6 mg of iron, IV) | serum Fe (serum transferrin; [3]) [μg/100 ml] | TIBC (Total Iron Binding Capacity) (serum transferrin; [3]) [μg/100 ml] | serum Fe (serum transferrin; [4]) [μg/100 ml] | TIBC (Total Iron Binding Capacity) (serum transferrin; [4]) [μg/100 ml] | side effects [2]
1 | CC(=O)N[O-].CC(=O)N[O-].CC(=O)N[O-].[Fe+3] [ferric acetohydroxamic acid complex, iron (III) complex of acetohydroxamic acid] | 6.5 | 20.0 | saturated the serum transferrin | greater than the TIBC | 360 | 360 | 470 | 330 | –
2 | ferrous sulfate | – | – | – | – | – | – | – | – | nausea, vomiting, constipation
